Consider five compounds from paper PMC11209715, “A novel selenium analog of HDACi-based twin drug induces apoptosis and cell cycle arrest via CDC25A to improve prostate cancer therapy” (Theranostics, 2024).

A short description of series [1]: Drug toxicity test: blood biochemistry in nude mice. It counts as in vivo. Also noted: TBIL / BUN: unit not given here. The note with it: serum of nude mice; for ALT: dose (DCA 100, SAHA 20, SeSAHA 20, Docetaxel 10, SeSA-DCA 20 mg/kg); for ALT / ALP / AST: in U/L (unit assumed); for ALB / GLOB / TP: in g/L (unit assumed). On the procedure:
Blood samples from each mouse were kept at room temperature for 3 h and centrifuged at 8000 rpm for 15 min to produce serum. The samples were then placed on the blood routine detector for biochemical analysis.

The subject of series [2] is PC3 cells. Briefly: RNA-sequencing and GSEA of treated PC3 cells. It counts as cell-based, Human. As to conditions: 48 h. Here is the method: PC3 cells were seeded at a density of 5 × 10^6 cells/flask in two 75 cm^2 flasks. Treatment with drugs for 48 h was performed in one flask, whereas the other was used as a control. Total RNA was isolated using TRIZOL, and the total RNA was extracted from the sample with RNA extraction kit (Accurate Biotechnology (Hunan) Co., Ltd. ChangSha, China). DNA was digested with DNase (GenScript, E00053). Magnetic beads with Oligo (dT) were used to enrich eukaryotic mRNA, and cDNA library construction and sequencing were performed on the Illumina HiSeq Xten platform. After quality inspection, raw data (raw reads) were processed using Trimmomatic. Reads containing ploy-N and low-quality reads were removed to obtain clean reads. The clean reads were then mapped to the reference genome using HISAT2. The FPKM value of each gene was calculated using cufflinks, and the read counts of each gene were obtained by htseq-count. DEGs were identified using DESeq. […] Hierarchical cluster analysis of DEGs was performed to explore the gene expression patterns. KEGG pathway enrichment analysis and PPI and IPA analyses of the DEGs were performed.
GSEA was conducted using GSEA software.

In a further series the test system is HT-29. As to the kind of experiment: CCK-8 cell viability assay, HT-29. It counts as cell-based. The note with it: Homo sapiens, Figure 2A. Here is the method: (§1) Human cancer cell lines (PC3, DU145, A549, H1299, MDA-MB-231, HepG2, PANC-1, MIA PaCa-2, HT-29, HCT116, and HeLa) were obtained from the Cell Resource Center, Peking Union Medical College (National Infrastructure of Cell Line Resource, NSTI). These cell lines were cultured according to NSTI culture guidelines and cultured in RPMI 1640 medium (Biological Industries, Israel) supplemented with 10% heat-inactivated fetal bovine serum (FBS; BI; Israel), penicillin/streptomycin (P/S; 100 IU/ml; Gibco, 10378016) in an incubator at 37 °C and 5% CO2.
(§2) Cell cytotoxicity assays were performed in 96-well plates (NEST) to determine the growth kinetics of SeSA-DCA-treated cells using CCK-8 reagent (Shandong Sparkjade Biotechnology Co., Ltd., CT0001-B). Cells (5000 cells/well) were treated with DMSO or different drugs. Each treatment was performed in five replicates. To assess cell growth, 10 μL of CCK-8 reagent was introduced to every well and allowed to incubate for 4 h. Following that, the absorbance value for each well was measured at 450 nm. Every experiment was duplicated no less than thrice.
Background: Tetrazolium dyes change colour on reduction, which living cells bring about.

Series [3] relates to PC3 cells. As to the kind of experiment: CCK-8 cell viability assay, PC3. It counts as cell-based. As to conditions: Homo sapiens, PC-3, Figure 2B and text. On the procedure: as §1, §2
The test system of another series is HDAC. As to the kind of experiment: Inhibitory activity of SeSAHA compared with SAHA (data not shown). As to conditions: preliminary results.
The mark [4] stands for this setting: versus DMSO, adjusted p-value < 0.05, |log2foldchange| > 1.

Structures are written as SMILES. A value given as a limit tells only on which side of the number the result lay.

In series [1], `O=C(CCCCCCC(=O)Nc1ccccc1)NO` [SAHA, suberoylanilide hydroxamic acid] displayed a BUN of 7.9 ± 1.5, a TBIL of 0.8 ± 0.17, an ALT of 53.5 ± 5.5 and an ALP of 34.3 ± 3.3. In series [1], this compound registered an AST of 285.3 ± 40.6, an ALB of 15.8 ± 0.6, a GLOB of 35.9 ± 3.6 and a TP of 51.7 ± 2.5. In the series with PC3 cells [2] (setting [4]), the downregulated transcripts/genes came to 1573 and the upregulated transcripts/genes is recorded as 2,024.

For `O=C(CCCCCC[Se][Se]CCCCCCC(=O)Nc1cccc(COC(=O)C(Cl)Cl)c1)Nc1cccc(COC(=O)C(Cl)Cl)c1`, in the series with HT-29, the IC50 (as a rule, the concentration needed to halve the response being measured) stood at 8.71 µM.

With `CC(=O)O[C@@]12CO[C@@H]1C[C@H](O)[C@@]1(C)C(=O)[C@H](O)C3=C(C)[C@@H](OC(=O)[C@H](O)[C@@H](NC(=O)OC(C)(C)C)c4ccccc4)C[C@@](O)([C@@H](OC(=O)c4ccccc4)[C@H]21)C3(C)C` [Docetaxel, docetaxel], in series [1], the A/G stood at 0.38 ± 0.04, the BUN worked out at 9.8 ± 0.8, the TBIL worked out at 0.7 ± 0.07 and the ALT is 46.4 ± 5.7. For the same compound, in series [1], the ALP came out at 34.2 ± 8.2, the AST stood at 251.8 ± 48.3, the ALB is recorded as 14.6 ± 0.6 and the GLOB stood at 38.3 ± 3.1. Moreover, the TP in series [1] was determined as 52.8 ± 4.1.

In series [1], `O=C(O)C(Cl)Cl` [DCA, Dichloroacetate] registered an A/G of 0.36 ± 0.02, a BUN of 10.5 ± 0.88, a TBIL of 0.49 ± 0.06 and an ALT of 37.5 ± 4.5. Further, in series [1], the ALP amounted to 36.2 ± 3.6, the AST came to 223.4 ± 35, the ALB is given as 13.45 ± 0.18 and the GLOB came out at 37.1 ± 0.22. For the same compound, in series [1], the TP stood at 51.5 ± 0.45. Also, the IC50 in the series with PC3 cells [3] was > 18000 µM. Moreover, the “changes in gene expression compared with DMSO” value in the series on PC3 cells [2] is on record as “minimal changes”.

In series [1], `O=C(CCCCCC[Se][Se]CCCCCCC(=O)Nc1cccc(CO)c1)Nc1cccc(CO)c1` [SeSAHA] yielded an A/G of 0.4 ± 0.07, a BUN of 6.7 ± 0.7, a TBIL of 0.6 ± 0.07 and an ALT of 49.3 ± 6.7. Further, in series [1], the ALP came out at 36.5 ± 4.3, the AST was determined as 235.5 ± 40.3, the ALB is listed as 15.4 ± 2.1 and the GLOB is given as 38.4 ± 1.1. In series [1], this compound displayed a TP of 53.7 ± 0.3. Also, the IC50 in the series on PC3 cells [3] was > 1.8 µM. For the same compound, the “inhibitory effect relative to SAHA” value in the series with HDAC is reported as “more than 10 fold”.
